The test system of test [1] is iPS cell-derived CAR-T cells. The conditions noted are these: 0.3 mM boric acid added to 1% FBS-containing medium; FIG. 1. The source says:
Then, on the fifth day of culture, some of the cells were recovered from G-Rex (registered trademark) 10M and the cells were counted, and the medium was replaced with the respective medium. On the sixth day of culture, some of the cells were recovered from G-Rex (registered trademark) 10M and the cells were counted. […] On the 12th and 14th days of culture, some of the cells were similarly collected from the G-Rex (registered trademark) 24-well plate, counted, and the medium was replaced with each medium.

Test [2] concerns human-derived primary T cell-derived CAR-T cells. The conditions noted are these: boric acid 0.3 mM added to serum-free medium (BM220720); FIG. 5.
Test [3] concerns iPS cell-derived CAR-T cells. As to the kind of experiment: Proliferation test, ITS-X and taurine added to 0.3 mM boric acid-containing serum-free medium. It counts as cell-based. As to conditions: for viability (%): serum-free expansion medium, boric acid 0.3 mM. As to the method:
A total of five types of expansion culture media were prepared: Advanced DMEM/F12 medium (Thermo Fisher) containing additives shown in the “expansion culture medium” column in Table 4, and said medium further added with either 0.3 mM boric acid (Sigma-Aldrich), 0.3 mM boric acid and 1×ITS-X ((Insulin-Transferrin-Selenium-Ethanolamine Supplements) Gibco), 0.3 mM boric acid and 1×ITS-X and 1 mM taurine (Sigma-Aldrich), or 0.3 mM boric acid and 1×ITS-X and 3 mM taurine (medium supplemented with only additives in Table 4, medium supplemented with additives in Table 4+0.3 mM boric acid, medium supplemented with additives in Table 4+0.3 mM boric acid+ITS-X, medium supplemented with additives in Table 4+0.3 mM boric acid+ITS-X+1 mM taurine, medium supplemented with additives in Table 4+0.3 mM boric acid+ITS-X+3 mM taurine). After 3 days of activation culture, the cells were collected from the T225 flask and suspended in each of the five types of expansion culture media at 40,000 cells/mL, and cultured under 5% CO2/37° C. using G-Rex (registered trademark) 10M (Wilson Wolf). Then, on the fifth day of culture, some of the cells were recovered from G-Rex (registered trademark) 10M and the cells were counted, and the medium was replaced with the respective medium. On the sixth day of culture, some of the cells were recovered from G-Rex (registered trademark) 10M and the cells were counted. On the 7th and 10th days of culture, some of the cells were recovered from the plate, counted, and seeded onto a G-Rex (registered trademark) 24-well plate (Wilson Wolf) containing each medium at 50,000 cells/mL. On the 12th and 14th days of culture, some of the cells were similarly collected from the G-Rex (registered trademark) 24-well plate, counted, and the medium was replaced with each medium.
In the expansion culture of item 5 in Example 4, the cell number and viability of iPS cell-derived CAR-T cells were measured on days 3, 5, 6, 7, 10, 12, and 14 of culture.

Test [4] concerns iPS cell-derived CAR-T cells. As to conditions: boric acid concentration range of 0.2 mM to 0.9 mM, serum-free medium; FIG. 3.
Protocol: After 3 days of activation culture, the cells were collected from the T225 flask and suspended in each of the five types of expansion culture media at 50,000 cells/mL, and cultured under 5% CO2/37° C. using G-Rex (registered trademark) 24-well plate (Wilson Wolf). Then, on the fifth day of culture, some of the cells were recovered from G-Rex (registered trademark) 24-well plate and the cells were counted, and the medium was replaced with the respective medium. On the 7th day of culture, the cells were counted by a similar method, seeded in a fresh G-Rex (registered trademark) 24-well plate at 50,000 cells/mL, and cultured in each medium. On the 10th and 12th days of culture, some of the cells were similarly collected from the plate, counted, and the medium was replaced with each medium.
The subject of test [5] is iPS cell-derived CAR-T cells. As to conditions: 0.3 mM boric acid added to serum-free medium; FIG. 2.
Protocol: After 3 days of activation culture, the cells were collected from the T225 flask and suspended in each of the two types of expansion culture media at 40,000 cells/mL, and cultured under 5% CO2/37° C. using G-Rex (registered trademark) 10M (Wilson Wolf). Then, on the fifth day of culture, some of the cells were collected from G-Rex (registered trademark) 10M and counted, and the medium was replaced with each medium. On the 7th and 10th days of culture, the cells were counted by a similar method, seeded in a G-Rex (registered trademark) 24-well plate at 50, 000 cells/mL, and cultured in each medium. On the 12th and 14th days of culture, some of the cells were similarly collected from the plate, counted, and the medium was replaced with each medium.

SMILES strings stand for the structures. Where two headings read alike, the source gives them in different places.

With `OB(O)O` [Boric acid, boric acid], the “proliferation (cell proliferation fold from day 0 of expansion culture)” value in test [1], in test [2] and in test [5] was “promoted” each time. Further, the “viability (%)” value in test [3] (Day 5) is 88.7%; in test [3] (Day 6) it was 88.6%; in test [3] (Day 7), 87.5%; in test [3] (Day 10) it was 90.3%; in test [3] (Day 12), 90.4%; in test [3] (Day 14), 88.3%. For the same molecule, the cell viability result in test [4] is reported as “not influenced”.
Take `NCCS(=O)(=O)O` [Taurine, taurine]: the “maximum difference (%) in viability between (3): without addition of Taurine and (4) or (5): with addition of Taurine” value came to 2.9% in test [3] (Day 5); 1.6% in test [3] (Day 6); 2.5% in test [3] (Day 7); 3.7% in test [3] (Day 10); 1.9% in test [3] (Day 12); 1.3% in test [3] (Day 14).

These data come from patent US20250382574A1, “CELL CULTURE METHOD” (Takeda Pharmaceutical Company Limited, priority 2022, published 2025).
